From PubChem BioAssay (NCI) come the findings set out here.

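96-well plates; 48 h exposure; 5 concentrations. Endpoints by linear interpolation between flanking doses. Not reached: highest tested concentration assigned. Here, GI50 denotes the concentration required for 50% inhibition of growth. Definition used: TGI = concentration required for complete inhibition of growth.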

Test systems include SF-268 CNS; HCT-116 colon; A549 NSCLC; SNB-75 CNS; NCI-H522 lung; UO-31 renal; UACC-62 melanoma; SW-620 colon; T-47D breast; DU-145 prostate.
What all share (assay): DTP human tumour cell line panel, 48 h

In general, TGI refers to the concentration at which net growth stops. A lower TGI goes with more potent growth arrest. Consider `Cc1ccc(S(=O)(=O)OCC/C(=C\[Si](C)(C)C)c2ccccc2)cc1`, for which the concentration for total growth inhibition (TGI) in the experiment on SF-268 CNS, with HCT-116 colon, in the experiment on A549 NSCLC, in the experiment on SNB-75 CNS, with NCI-H522 lung and in the experiment on UO-31 renal was > 100 µM in each case. For the same compound, the TGI in the experiment with UACC-62 melanoma and in the experiment on SW-620 colon was > 100 µM throughout.

As usually defined, the GI50 is the concentration that inhibits growth by half. Consider `COc1cc(CNc2nc3cc(N)cc(N)c3nc2-c2ccccc2)cc(OC)c1`, for which the GI50 was 5.32 µM in the experiment on SF-268 CNS; 3.08 µM in the experiment with HCT-116 colon; 33.2 µM with A549 NSCLC; 1670 nM in the experiment with T-47D breast; 2880 nM in the experiment with NCI-H522 lung; 4.05 µM in the experiment on UO-31 renal. For the same compound, the GI50 is 5.31 µM in the experiment on UACC-62 melanoma, 29.7 µM in the experiment on DU-145 prostate and 4.45 µM in the experiment with SW-620 colon. Moreover, the TGI in the experiment with SF-268 CNS is > 100 µM; with HCT-116 colon, 11.3 µM; with A549 NSCLC, > 100 µM; in the experiment with T-47D breast, 4.57 µM; in the experiment on NCI-H522 lung, 23 µM; in the experiment on UO-31 renal, > 100 µM. Also, the concentration for total growth inhibition (TGI) in the experiment on UACC-62 melanoma is 30.7 µM; in the experiment with DU-145 prostate, > 100 µM; with SW-620 colon, > 100 µM.

As to `CCc1cccc(C)c1NC(=O)CCc1nc(=S)[nH][nH]1`, the TGI in the experiment on SF-268 CNS, in the experiment with HCT-116 colon, in the experiment on A549 NSCLC, in the experiment with NCI-H522 lung, in the experiment on UO-31 renal and in the experiment on UACC-62 melanoma was > 100 µM in each case. Besides, the TGI in the experiment on SW-620 colon is > 100 µM.

Regarding `COc1nc2c(c(O)c(C)c(=O)n2OC2OCC(OC(C)=O)C(OC(C)=O)C2OC(C)=O)c(=O)n1C` (stereo unspecified), the total growth inhibition concentration (TGI) in the experiment on SF-268 CNS, with HCT-116 colon, in the experiment on A549 NSCLC, with SNB-75 CNS, in the experiment with NCI-H522 lung and with UO-31 renal was > 100 µM each time. Further, the TGI in the experiment on UACC-62 melanoma and in the experiment on SW-620 colon was > 100 µM each time.

Take `O=c1/c(=C/c2ccccc2[N+](=O)[O-])sc2nnc(-c3cccnc3)n12`: the total growth inhibition concentration (TGI) with SF-268 CNS, in the experiment with HCT-116 colon, in the experiment with A549 NSCLC, in the experiment on SNB-75 CNS, with UO-31 renal and with UACC-62 melanoma was > 100 µM throughout. The TGI in the experiment with SW-620 colon stood at 24.5 µM.

In the case of `O=C1/C(=C\c2ccccc2)CN(C(=O)CCN2CCCCC2)C/C1=C/c1ccccc1`, the TGI with SF-268 CNS worked out at 4.51 µM; with HCT-116 colon, 0.709 µM; with A549 NSCLC it was 10.9 µM; in the experiment with SNB-75 CNS, 6.79 µM; in the experiment with NCI-H522 lung it was 2.31 µM; with UO-31 renal, 4.56 µM. For the same compound, the TGI in the experiment with UACC-62 melanoma came out at 3.08 µM; in the experiment with DU-145 prostate, 17.9 µM; with SW-620 colon it was 0.364 µM.

With `O=C(NC12CC3CCC1CC(C3)C2)[C@@H]1CCCN1C(=O)OCc1ccccc1` (stereo partly specified), the concentration for total growth inhibition (TGI) with SF-268 CNS was > 100 µM; in the experiment on HCT-116 colon, > 100 µM; in the experiment on A549 NSCLC it was > 100 µM; in the experiment with SNB-75 CNS it was 97.2 µM; in the experiment on NCI-H522 lung it was > 100 µM; with UO-31 renal it was > 100 µM. Moreover, the total growth inhibition concentration (TGI) with UACC-62 melanoma and in the experiment with SW-620 colon was > 100 µM each time.

For `O=C1CC(c2ccccc2)Oc2ccccc21` (stereo unspecified), the TGI in the experiment with SF-268 CNS, in the experiment on HCT-116 colon, in the experiment with SNB-75 CNS, in the experiment with T-47D breast, with UO-31 renal and with UACC-62 melanoma was > 100 µM each time. In addition, in the experiment on DU-145 prostate, the TGI is > 100 µM.

With `Nc1ncc(Cc2ccc3c(c2)OCO3)c(N)n1`, the concentration for total growth inhibition (TGI) with SF-268 CNS, in the experiment with HCT-116 colon, in the experiment on A549 NSCLC, with T-47D breast, with UO-31 renal and with UACC-62 melanoma was > 100 µM in each case. Moreover, the total growth inhibition concentration (TGI) in the experiment on DU-145 prostate and in the experiment on SW-620 colon was > 100 µM in each case.

For `COC(=O)CCC(NC(=S)N/N=C/c1cccs1)C(=O)OC` (stereo unspecified), the TGI in the experiment with SF-268 CNS, with HCT-116 colon, with A549 NSCLC, in the experiment with SNB-75 CNS, in the experiment on NCI-H522 lung and in the experiment on UO-31 renal was > 100 µM in each case. In addition, the total growth inhibition concentration (TGI) in the experiment with UACC-62 melanoma and in the experiment with SW-620 colon was > 100 µM in each case.

As to `O=C(NC1C(=O)NNC1c1cccc([N+](=O)[O-])c1)c1ccccc1` (stereo unspecified), the concentration for total growth inhibition (TGI) with SF-268 CNS, in the experiment with HCT-116 colon, with A549 NSCLC, with SNB-75 CNS, in the experiment with UO-31 renal and in the experiment with UACC-62 melanoma was > 100 µM in each case. Further, the concentration for total growth inhibition (TGI) in the experiment with SW-620 colon is > 100 µM.

Consider `O=C1NC(=O)c2c1n(Cc1ccccc1)c(=O)n2Cc1ccccc1`, for which the concentration for total growth inhibition (TGI) in the experiment on SF-268 CNS, in the experiment with HCT-116 colon, with A549 NSCLC, with SNB-75 CNS, with NCI-H522 lung and in the experiment on UO-31 renal was > 100 µM in each case. Moreover, the TGI in the experiment with UACC-62 melanoma and in the experiment on SW-620 colon was > 100 µM each time.

Take `CCOC(=O)c1nc(C)oc1C(F)(F)F`: the TGI with SF-268 CNS, with HCT-116 colon, with A549 NSCLC, in the experiment with SNB-75 CNS, in the experiment on NCI-H522 lung and with UO-31 renal was > 100 µM each time. Besides, the TGI in the experiment on UACC-62 melanoma and in the experiment on SW-620 colon was > 100 µM throughout.

Consider `C[C@]12Cc3cn[nH]c3C(=O)C1CC[C@@H]1C2CC[C@@]2(C)C1CC[C@@H]2O` (stereo partly specified), for which the concentration for total growth inhibition (TGI) with SF-268 CNS, in the experiment with HCT-116 colon, with A549 NSCLC, with SNB-75 CNS, with NCI-H522 lung and in the experiment on UO-31 renal was > 100 µM throughout. Besides, the TGI in the experiment with UACC-62 melanoma and in the experiment on SW-620 colon was > 100 µM in each case.

With `O=[N+]([O-])c1ccc(Cl)c2c([N+](=O)[O-])cccc12`, the concentration for total growth inhibition (TGI) was > 10 µM in the experiment on SF-268 CNS; 5.32 µM in the experiment on HCT-116 colon; > 10 µM in the experiment on A549 NSCLC; > 10 µM in the experiment on SNB-75 CNS; > 10 µM with T-47D breast; > 10 µM with UACC-62 melanoma. Moreover, the TGI in the experiment on SW-620 colon is > 10 µM.
